Test system: gentamicin-resistant P. aeruginosa, Pa383-ΔrahU::GM
Experiment: Biofilm biomass, aqueous or dried onto 96-well plates
Assay type: cell-based, Pseudomonas aeruginosa
Conditions: 32 h incubation
Protocol: An equimolar (10 μM per antisense-PNA) cocktail of the antisense-PNAs rsmA 0, amrZ 0, and rpoS 0 with 50% methanol (MeOH) (total volume: 60 μL) was dried onto a 96-well clear flat bottom polystyrene tissue culture-treated microplate in a Fisherbrand™ Isotemp™ Digital Dry Bath/Block Heater at 37° C. 60 μL of 100 μg/mL gentamicin was also dried onto wells. Gentamicin-resistant P. aeruginosa, Pa383-ΔrahU::GM was subcultured as described above (Rao, J. et al., 2011)
Biofilms were stained with 175 μL 0.1% crystal violet (CV), rinsed with sterile water until the water ran clear, solubilized in 100 μL of 33% glacial acetic acid (GAA), and absorbance was measured using a spectrophotometer at 590 nm (Wilson, C. et al., 2017).

gentamicin
average biofilm biomass (aq, vs untreated in M9+ media): no statistically significant difference | average biofilm biomass (dried in MeOH, vs dried MeOH control wells): no statistically significant difference
